What was measured:
Carbonic anhydrase 2 = Carbonic anhydrase 2 (Homo sapiens, UniProt P00918); test: Hydratase and Esterase Activity Assays
Protocol: (§1) The effect of novel sulfonamides 28-33 on HCA isozyme activity was determined colorimetrically using CO2-hydration method of Wilbur and Anderson29 described previously [G l in et al., Biol. Pharm. Bull., 27:613-16]. Esterase activity was determined according to the method described by Verpoorte et al [Verpoorte et al., J. Biol. Chem., 242:4221-9].

Carbonic anhydrase 1 = Carbonic anhydrase 1 (Homo sapiens, UniProt P00915); test: Hydratase and Esterase Activity Assays
Chain of Carbonic anhydrase 1 (P00915 whole entry): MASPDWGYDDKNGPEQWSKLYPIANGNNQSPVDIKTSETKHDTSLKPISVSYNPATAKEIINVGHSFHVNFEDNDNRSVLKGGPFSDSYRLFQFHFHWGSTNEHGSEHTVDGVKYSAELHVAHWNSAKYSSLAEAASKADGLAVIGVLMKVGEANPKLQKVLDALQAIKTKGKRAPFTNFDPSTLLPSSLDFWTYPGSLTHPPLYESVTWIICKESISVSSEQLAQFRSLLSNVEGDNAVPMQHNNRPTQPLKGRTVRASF
Protocol: as §1

Compound | IC50 (Carbonic anhydrase 2) [µM] | Ki (Carbonic anhydrase 2) [µM] | Ki (Carbonic anhydrase 1) [µM] | IC50 (Carbonic anhydrase 1) [µM]
COc1cc2c(cc1OC)CC(NS(C)(=O)=O)C2 [N-(5,6-dimethoxy-2,3-dihydro-1H-inden-2-yl)methanesulfonamide (32)] |  | 372 | 46 | 266
COc1cc2c(cc1OC)C(NS(C)(=O)=O)CC2 (stereo not given) [N-(5,6-dimethoxyindane-1-yl)methanesulfonamide (28)] |  | 215 | 52 | 487
COc1cccc2c1CCCC2NS(C)(=O)=O (stereo not given) [N-(5-metoksi-1,2,3,4-tetrahydronaphthalene-1-yl)methanesulfonamide (30)] |  | 112 | 185 | 

Continued, values first:

IC50 (Carbonic anhydrase 2) [µM] | Ki (Carbonic anhydrase 2) [µM] | Ki (Carbonic anhydrase 1) [µM] | IC50 (Carbonic anhydrase 1) [µM] | Compound
338 | 94 | 228 |  | CS(=O)(=O)NC1CCc2ccccc2C1 (stereo not given) [N-(1,2,3,4-tetrahydronaphthalene-2-yl)methanesulfonamide (31)]
 | 211 | 173 |  | CS(=O)(=O)NC1CCc2ccccc21 (stereo not given) [N-(Indane-1-yl)methanesulfonamide (29)]
 | 170 | 104 |  | CS(=O)(=O)NC1Cc2ccccc2C1 [N-(Indane-2-yl)methanesulfonamide (33)]
